Measurements taken from patent US8871267B2, “Protein matrix materials, devices and methods of making and using thereof” (Gel-Del Technologies, Inc., priority 1998, dated 2014).

Tests used:
xanthine oxidase = target: T1, xanthine oxidase (Bos taurus, UniProt P80457); assay: Enzyme activity of xanthine oxidase in the device piece (Sigma Enzymatic Assay of Superoxide Dismutase protocol); type: biochemical; details: 0.01 unit solution
T1 construct: purchased Sigma Chemical Company, St. Louis Mo
Method: A single cylinder piece, prepared as described above in Example 1, was added to a reaction chamber in a spectrophotometer containing xanthine, cytochrome C and other reactants according to previously described superoxide dismutase protocol (Sigma Quality Control Test Procedure EC 1.15.1.1 “Enzymatic Assay of Superoxide Dismutase”) enzyme activity of the enzyme xanthine oxidase in the piece was calculated at 0.0005 delta absorbance min (absorbance measured at 550 mm where no enzyme activity produces 0.00000 change in absorbance). In comparison to a 0.01 unit solution of xanthine oxidase, which produced 0.0250 delta absorbance/min, the activity of the xanthine oxidase in the piece equaled 1% of the control solution in a time period of only 3 minutes.

hepatocytes = assay: Biological activity of released hEGF in in-vitro cell culture; type: cell-based; details: subsequent studies using hepatocytes

T1 sequence (P80457 2-1332 limits assumed): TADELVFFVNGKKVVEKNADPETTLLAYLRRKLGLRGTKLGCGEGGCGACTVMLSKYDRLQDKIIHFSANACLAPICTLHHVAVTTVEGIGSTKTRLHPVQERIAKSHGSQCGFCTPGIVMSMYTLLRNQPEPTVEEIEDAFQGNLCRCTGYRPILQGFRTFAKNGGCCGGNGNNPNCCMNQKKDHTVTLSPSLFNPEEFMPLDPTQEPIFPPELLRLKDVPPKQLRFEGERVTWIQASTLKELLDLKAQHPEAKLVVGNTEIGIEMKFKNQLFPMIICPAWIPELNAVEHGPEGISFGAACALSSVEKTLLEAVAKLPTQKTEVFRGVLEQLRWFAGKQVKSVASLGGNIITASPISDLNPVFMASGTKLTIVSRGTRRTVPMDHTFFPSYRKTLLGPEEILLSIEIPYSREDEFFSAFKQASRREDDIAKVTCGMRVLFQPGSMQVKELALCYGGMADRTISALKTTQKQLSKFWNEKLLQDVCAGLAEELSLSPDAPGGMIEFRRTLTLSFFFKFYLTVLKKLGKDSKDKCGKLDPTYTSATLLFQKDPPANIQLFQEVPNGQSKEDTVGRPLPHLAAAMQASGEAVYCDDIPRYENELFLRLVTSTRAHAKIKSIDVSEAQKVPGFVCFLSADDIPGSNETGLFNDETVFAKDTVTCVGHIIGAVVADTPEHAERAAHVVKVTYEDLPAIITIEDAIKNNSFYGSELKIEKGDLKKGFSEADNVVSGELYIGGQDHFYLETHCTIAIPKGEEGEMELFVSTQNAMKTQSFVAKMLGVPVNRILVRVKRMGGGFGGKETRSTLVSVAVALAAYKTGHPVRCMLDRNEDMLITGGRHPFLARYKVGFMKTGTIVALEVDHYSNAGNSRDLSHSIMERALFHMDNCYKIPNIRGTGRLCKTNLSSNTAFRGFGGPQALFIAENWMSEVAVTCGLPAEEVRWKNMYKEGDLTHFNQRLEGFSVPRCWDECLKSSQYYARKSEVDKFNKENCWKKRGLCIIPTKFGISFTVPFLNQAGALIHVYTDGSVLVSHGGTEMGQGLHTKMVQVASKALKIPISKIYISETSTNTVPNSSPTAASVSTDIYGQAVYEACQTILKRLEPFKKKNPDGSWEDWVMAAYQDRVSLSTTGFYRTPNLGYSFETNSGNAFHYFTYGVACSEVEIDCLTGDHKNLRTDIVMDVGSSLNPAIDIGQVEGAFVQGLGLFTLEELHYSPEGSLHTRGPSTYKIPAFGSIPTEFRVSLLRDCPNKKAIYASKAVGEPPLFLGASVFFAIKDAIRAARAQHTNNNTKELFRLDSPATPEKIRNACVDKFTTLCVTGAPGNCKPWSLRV

Substance | rate produced by xanthine oxidase solution (xanthine oxidase) | biological activity of released hEGF (hepatocytes)
xanthine oxidase | 0.0250 delta absorbance/min | –
hEGF: recombinant human epidermal growth factor (R&D System) (NSDSECPLSHDGYCLHDGVCMYIEALDKYACNCVVGYIGERCQYRDLKWWELR; not fully specified; Epidermal growth factor; UniProt P01133 971-1023, looked up) | – | has biological activity
